Data as given in PMC3757248, “Antiestrogen-binding site ligands induce autophagy in myeloma cells that proceeds through alteration of cholesterol metabolism” (Oncotarget, 2013).

Assays:
NCI-H929 = test system: NCI-H929; set-up: method as in earlier work; conditions: cited from earlier work
LP-1 cells [1] = experiment: Presence of 5,6-EC in cells by GC/MS; format: cell-based, human; conditions: 48 h, 10 μM drug (PBPE 40 μM)
Experimental: (§1) The organic layer was reduced to dryness under a flux of argon and the residue was resuspended in ethanol. Sterols were analyzed by liquid chromatography and gas-liquid chromatography as described before. Neutral lipids and sphingomyelin analyses were done according to previously published procedures.

RPMI 8226 cells [2] = experiment: Presence of 5,6-EC in cells by GC/MS; format: cell-based, human; conditions: 48 h, 10 μM drug (PBPE 40 μM)
Experimental: as §1

RPMI 8226 and LP-1 cells [3] = experiment: Degradation of long-lived proteins; format: cell-based, human; conditions: both cell lines, 10 μM OHT, 40 μM PBPE
Experimental: The degradation of long-lived proteins was measured as described previously. Briefly, HMCLs were incubated for 24 h at 37°C with 0.2 μCi/ml of L-[[14]C]valine in complete medium. Cells were then washed resuspended in medium with no nutrients but supplemented with 10 mM valine. After the first h of incubation, the chase medium was replaced by complete medium and the incubation continued for 5 h. […] Radiolabeled proteins present in the chase medium as well as in cells were precipitated with 10% trichloroacetic acid (v/v) at 4°C. Radioactivity was measured by scintillation counting. The rate of protein degradation was calculated from the ratio of radioactivity in the medium to that of precipitated cell fraction.

RPMI 8226 = test system: RPMI 8226; set-up: method as in earlier work; conditions: cited from earlier work
LP-1 cells [4] = experiment: Sterols accumulated in cells, HPLC and GC/MS; format: cell-based, human; conditions: LP1, 48 h incubation
Experimental: as §1

RPMI 8226 cells [5] = experiment: Sterols accumulated in cells, HPLC and GC/MS; format: cell-based, human; conditions: RPMI 8226, 48 h incubation
Experimental: as §1

U266 = test system: U266; set-up: method as in earlier work; conditions: cited from earlier work
RPMI 8226 cells [6] = experiment: Electron microscopy for MLBs, AVs and UVs; format: cell-based, human; conditions: 48 h, 10 μM drug (PBPE 40 μM)
OPM-2 = test system: OPM-2; set-up: method as in earlier work; conditions: cited from earlier work
HMCLs = experiment: Free sterol accumulation in HMCLs; format: cell-based, human
Experimental: as §1

MM tumors = test system: MM tumors; set-up: method as in PMID 20033476, PMID 16753295; conditions: xenografted mice bearing MM tumors; cited from earlier work
LP-1 = test system: LP-1; set-up: method as in earlier work; conditions: cited from earlier work
ChEH = ChEH (Homo sapiens, UniProt Q15125+Q9UBM7); experiment: ChEH activity in HMCLs (TLC); format: cell-based; set-up: endogenous in cells; host or cells: RPMI 8226 and LP-1 human multiple myeloma cell lines; conditions: OHT, Tam, RU 58668 10 μM, PBPE 40 μM
Sequence of ChEH (Q15125 whole entry): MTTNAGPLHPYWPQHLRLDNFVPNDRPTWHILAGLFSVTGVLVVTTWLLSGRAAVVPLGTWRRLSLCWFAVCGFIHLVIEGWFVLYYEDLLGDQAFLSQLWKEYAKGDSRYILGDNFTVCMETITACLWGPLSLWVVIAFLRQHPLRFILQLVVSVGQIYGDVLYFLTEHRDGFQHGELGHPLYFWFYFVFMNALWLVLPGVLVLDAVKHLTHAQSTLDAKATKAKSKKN
Sequence of ChEH (Q9UBM7 whole entry): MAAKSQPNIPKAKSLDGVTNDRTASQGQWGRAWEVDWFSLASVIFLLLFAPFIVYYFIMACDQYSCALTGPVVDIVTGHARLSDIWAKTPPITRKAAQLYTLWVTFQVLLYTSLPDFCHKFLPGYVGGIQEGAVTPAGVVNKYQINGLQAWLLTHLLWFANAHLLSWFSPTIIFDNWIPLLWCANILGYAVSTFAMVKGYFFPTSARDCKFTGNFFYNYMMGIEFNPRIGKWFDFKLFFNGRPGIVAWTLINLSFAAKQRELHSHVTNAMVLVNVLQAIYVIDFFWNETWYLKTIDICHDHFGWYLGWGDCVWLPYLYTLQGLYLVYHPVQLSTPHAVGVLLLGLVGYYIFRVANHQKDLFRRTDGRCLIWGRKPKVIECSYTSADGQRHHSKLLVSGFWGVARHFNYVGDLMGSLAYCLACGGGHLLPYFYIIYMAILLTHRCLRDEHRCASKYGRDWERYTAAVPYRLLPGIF
Text: Cells were then pelleted and extracted with chloroform/methanol (2/1). The organic layer was reduced to dryness under a flux of argon and the residue was resuspended in EtOH. Samples were applied to thin layer chromatography (TLC) plates and developed using ethyl acetate as previously described. The radioactive metabolites were visualized by autoradiography using Kodak Biomax MS films.

RPMI 8226 and LP-1 cells [7] = experiment: Intracellular free sterol, TG and SM contents; format: cell-based, human; conditions: 5 µM OHT, 20 µM PBPE or 5 µM RU 58668 for three days
Experimental: as §1

AEBS = AEBS (Homo sapiens, UniProt Q15125+Q9UBM7); experiment: Binding to the AEBS in HMCLs; set-up: endogenous in cells; host or cells: RPMI 8226 and LP-1 human multiple myeloma cell lines
Sequence of AEBS (Q15125 whole entry): as the sequence (Q15125 whole entry) above
Sequence of AEBS (Q9UBM7 whole entry): as the sequence (Q9UBM7 whole entry) above

LP-1 cells [8] = experiment: Electron microscopy for MLBs, AVs and UVs; format: cell-based, human; conditions: 48 h, 10 μM drug (PBPE 40 μM)
Karpas 620 = test system: Karpas 620; set-up: method as in earlier work; conditions: cited from earlier work
[9] = RPMI 8226, presence of 500 μM Vit E

ChEH activity, conversion of 5,6-EC into CT by TLC (ChEH): ChEH activity was inhibited
affinity for the AEBS (AEBS): high affinity
SMILES: CC/C(=C(\c1ccc(O)cc1)c1ccc(OCCN(C)C)cc1)c1ccccc1 [OHT]
SERM and SERDs effects on MM cell lines (NCI-H929): G1-arrest and apoptosis
5,6-EC (LP-1 cells [1]; LP-1, absence of Vit E): +
5,6-EC (LP-1 cells [1]; LP-1, presence of 500 μM Vit E): −
5,6-EC (RPMI 8226 cells [2]; RPMI 8226, absence of Vit E): +
5,6-EC (RPMI 8226 cells [2]; [9]): −
rate of long-lived protein degradation (RPMI 8226 and LP-1 cells [3]): stimulated
SERM and SERDs effects on MM cell lines (RPMI 8226): G1-arrest and apoptosis
Desmosterol (LP-1 cells [4]): 44.4 percent by the weight of total sterol
Zymostenol (LP-1 cells [4]): 1.9 percent by the weight of total sterol
Zymostenol (RPMI 8226 cells [5]): 1.8 percent by the weight of total sterol
SERM and SERDs effects on MM cell lines (U266): G1-arrest and apoptosis
AV (RPMI 8226 cells [6]; RPMI 8226, absence of Vit E): + + (The sign + means that 80 % cells were positive and contained at least 5 vesicles)
MLB (RPMI 8226 cells [6]; RPMI 8226, absence of Vit E): + + (The sign + means that 80 % cells were positive and contained at least 5 vesicles)
UV (RPMI 8226 cells [6]; RPMI 8226, absence of Vit E): + (The sign + means that 80 % cells were positive and contained at least 5 vesicles)
AV (RPMI 8226 cells [6]; [9]): + + (The sign + means that 80 % cells were positive and contained at least 5 vesicles)
MLB (RPMI 8226 cells [6]; [9]): + + (The sign + means that 80 % cells were positive and contained at least 5 vesicles)
UV (RPMI 8226 cells [6]; [9]): − (otherwise they were considered as negative (-))
SERM and SERDs effects on MM cell lines (OPM-2): No response
free sterol accumulated (HMCLs): accumulation of desmosterol
tumor growth (MM tumors): block tumor growth
SERM and SERDs effects on MM cell lines (LP-1): G1-arrest and apoptosis
intracellular free sterol, triacylglycerol (TG) and sphingomyelin (SM) contents (RPMI 8226 and LP-1 cells [7]): increases
AV (LP-1 cells [8]; LP-1, absence of Vit E): + + (The sign + means that 80 % cells were positive and contained at least 5 vesicles)
MLB (LP-1 cells [8]; LP-1, absence of Vit E): + + (The sign + means that 80 % cells were positive and contained at least 5 vesicles)
UV (LP-1 cells [8]; LP-1, absence of Vit E): + (The sign + means that 80 % cells were positive and contained at least 5 vesicles)
AV (LP-1 cells [8]; LP-1, presence of 500 μM Vit E): + + (The sign + means that 80 % cells were positive and contained at least 5 vesicles)
MLB (LP-1 cells [8]; LP-1, presence of 500 μM Vit E): + + (The sign + means that 80 % cells were positive and contained at least 5 vesicles)
UV (LP-1 cells [8]; LP-1, presence of 500 μM Vit E): − (otherwise they were considered as negative (-))
SERM and SERDs effects on MM cell lines (Karpas 620): No response
